Results published in PMC10622577, “Structural basis for stabilisation of the RAD51 nucleoprotein filament by BRCA2” (Nature Communications, 2023).

Legend:
RAD51 [1] = target: T1, RAD51 (Homo sapiens, UniProt Q06609); test: SPR Kd estimation of TR2 for wild-type and mutant RAD51; format: binding; conditions: saturation not achieved, would need >30 uM TR2
T1 construct: made in house; host or cells: E. coli BL21(DE3)Rosetta2
T1 sequence (Q06609 2-339): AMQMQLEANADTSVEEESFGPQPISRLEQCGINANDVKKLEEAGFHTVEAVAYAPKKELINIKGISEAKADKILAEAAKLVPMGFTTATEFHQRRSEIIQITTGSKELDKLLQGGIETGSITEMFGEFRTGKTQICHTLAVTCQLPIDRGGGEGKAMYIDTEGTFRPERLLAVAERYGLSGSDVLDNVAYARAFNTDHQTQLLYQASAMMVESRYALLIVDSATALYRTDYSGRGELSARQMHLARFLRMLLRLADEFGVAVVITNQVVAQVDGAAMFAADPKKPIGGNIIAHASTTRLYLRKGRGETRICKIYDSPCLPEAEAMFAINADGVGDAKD
Experimental: (§1) All binding experiments were performed in CMA buffer: 25 mM HEPES pH 7.4, 100 mM NaCl, 2 mM DTT, 2 mM ATP, 5 mM CaCl2, 5 mM MgCl2. 1 μM RAD51 (wild-type, D184A or D184A, D187A mutant proteins) was injected for 120 seconds followed by buffer for 120 seconds at a flow rate of 10 μl/min. TR2 or BRC4 peptides were then injected in a concentration titration series of 0.1, 0.25, 0.5, 0.75, 1, 2, 3, 5, 7.5, 10 and 15 μM for 120 seconds at a flow rate of […] followed by a dissociation time of 240 seconds. After each injection of BRCA2 peptide, the sensor chip was regenerated with buffer comprising of CMA buffer with 1 M NaCl for 120 seconds at a flow rate of 100 μl/min. All experiments were performed in triplicate.
(§2) For the BRCA2 TR2 titration series, blank-subtracted sensorgrams were used to extract the maximum response accumulated after each TR2 injection. TR2 response accumulation was corrected to account for differences in RAD51 filament formation between runs, by multiplying the maximum response by a scale factor calculated as the ratio between mean RAD51 filament accumulation on each DNA substrate and the mean RAD51 accumulated for each mutant for each triplicate. […]
(§3) consequently the need to inject the TR2 peptide at high concentrations (>30 uM), which would change sample viscosity and affect the refractive index for detection. The Kd values that we obtained based on the measured […]

RAD51 [2] = test: as above; format: binding, human; conditions: no binding saturation, large confidence intervals, statistically unreliable, no numbers given
Experimental: as §1, §2, §3

For “DDQKNCKKRRALDFLSRLPLPPPVSPICTFVSPAAQKAFQPPRSCGTKY [TR2, BRCA2 TR2 peptide spanning amino acids 3260 to 3308]”, the “affinity of TR2 for RAD51” value (RAD51 [1]) was “relatively low affinity” and the “Kd trend, wild-type versus mutant RAD51” value (RAD51 [2]) was “KdwtRAD51 < KdmutRAD51”.
